Measured values published in patent publication US20130189764A1, “SELECTIVE GROWTH MEDIA” (Oxide Limited, priority 2000, published 2013).
In brackets after ≈: the same amount, converted by molar mass.

What was measured:
[1] = test system: S. indiana OCC 2412 and S. worthington OCC 634; assay: Bioscreen growth in Lab-Lemco broth (Example 11), Salmonella strains; format: cell-based; conditions: 64 μg/ml, Lab-Lemco broth pH 5.7, 37° C.
Description: (§1) Thus, Ala-AEP was dissolved in deionised water (7.0 mg/ml), filter sterilised, and an amount of the solution added to autoclaved Lab-Lemco broth (20 g/l; pH 5.7) to give a concentration of 70 μg/ml. Volumes (300 μl) of this solution were then pipetted into the wells of Bioscreen microtitre plates and 30 μl quantities of 1 in 10,000 dilutions of overnight cultures added (reducing the final alaphosphin concentration to 64 μg/m). Plates were then covered, incubated at 37° C., and the opacity of the organism suspensions measured using a Bioscreen instrument. Growth of the Salmonella strains was unaffected whereas the E. coli strains were all inhibited.
(§2) Typical results are shown in FIG. 16, which is a graph of Optical Density against time (hours). Growth of S. indiana OCC 2412 and S. worthington OCC 634 is denoted by crosses and circles respectively.

E. faecalis OCC 604 = assay: growth on nutrient agar, mixed culture with S. aureus (Example 7); format: cell-based, Enterococcus faecalis; conditions: E. faecalis in mixed culture with S. aureus
Text: Example 6 was repeated, this time using a mixed culture of S. aureus OCC 102 and E. faecalis OCC 604, in the presence of AEP or alaphosphin. The empty columns represent growth of S. aureus, the shaded columns represent growth of E. faecalis. […] Thus alaphosphin could be used, when incorporated at an appropriate concentration in a medium, to inhibit growth of organisms such as Enterococci in samples whilst allowing Staphylococci to grow and be detected.

[2] = test system: Enterococcus faecalis 640; assay: MIC in DMSal medium (Example 17); format: cell-based; conditions: Enterococcus faecalis, 640
[3] = test system: strains of Escherichia coli; assay: Bioscreen growth in Lab-Lemco broth (Example 11), E. coli strains; format: cell-based; conditions: 64 μg/ml, Lab-Lemco broth pH 5.7, 37° C., four E. coli strains
Description: as §1, §2

E. coli OCC 2129 = assay: Bioscreen growth, comparison with conventional selective agents (Example 12); format: cell-based, Escherichia coli; conditions: 60 μg/ml alaphosphin
Description: The following is an example to illustrate the beneficial lower toxic properties of the new selective agents towards the target microorganism, in this case Salmonella. Two selective agents, cefsulodin and novobiocin, as used conventionally in Salmonella isolation from foods (Humphrey and Whitehead, 1992 British Poultry Science 33, 761-768) were compared with alaphosphin. All were dissolved in deionised water, filter sterilised, and an amount of the solution added to either autoclaved Lab-Lemco broth+phosphate buffer (20 g/l; pH 6.0; ala-AEP) or Buffered Peptone Water (pH 6.8; cefsulodin and novobiocin) to give final concentrations of 66, 16.5 and 11 μg/ml respectively. [The different pH values reflect the different pH optima of the selective agents (ala-AEP was also subsequently used in BPW at pH 6.8 and similar results obtained)]. Volumes (300 μl) were then pipetted into the wells of Bioscreen microtitre plates and 30 μl quantities of 1 in 10,000 dilutions of overnight cultures of E. coli OCC 2129 and Salmonella typhimurium OCC 722, added. Plates were then covered, incubated at 37° C., and the opacity of the organism suspensions measured using a Bioscreen instrument.
Typical results are shown in FIGS. 17-19, which are graphs of optical density against time for S. typhimurium (circles) and E. coli (squares) in the presence (empty symbols) or absence (filled symbols) of 15 μg/ml cefsulodin (FIG. 17), 10 μg/ml novobiocin (FIG. 18) or 60 μg/ml alaphosphin (FIG. 19).

[4] = test system: Klebsiella pneumoniae 411; assay: MIC / growth in DMSal (Example 16); format: cell-based; conditions: Klebsiella pneumoniae 411, DMSal, 1.5 μg/ml
Description: (§3) The experiments were conducted as follows: nutrient agar medium was autoclaved and, on cooling (but prior to setting) filter-sterilised alaphosphin or AEP were incorporated at final concentrations of 1 mM, 2 mM, 5 mM and 10 mM, and the medium used to pour plates. Control plates were prepared using nutrient agar without alaphosphin or AEP. A single colony of the organism under test was inoculated in 10 ml of nutrient broth and incubated (without agitation) at 37° C. for 4 hours.
(§4) Trp-AEP was compared to alaphosphin (Ala-AEP) for selective growth of Salmonella strains on DMSal agar.

[5] = test system: Salmonella enteriditis 723; assay: MIC / growth in DMSal (Example 16); format: cell-based; conditions: Salmonella enteriditis 723, DMSal, 1.5 μg/ml
Description: as §3, §4

Serratia marcescens 217 = assay: MIC / growth in DMSal (Example 16); format: cell-based; conditions: Serratia marcescens 217, DMSal, 1.5 μg/ml
Description: as §3, §4

Citrobacter freundii 370 [6] = assay: MIC / growth in DMSal (Example 16); format: cell-based; conditions: Citrobacter freundii 370, DMSal, 1.5 μg/ml
Description: as §3, §4

Salmonella virchow 703 = assay: MIC / growth in DMSal (Example 16); format: cell-based; conditions: Salmonella virchow 703, DMSal, 1.5 μg/ml
Description: as §3, §4

Klebsiella aerogenes 323 = assay: MIC / growth in DMSal (Example 16); format: cell-based; conditions: Klebsiella aerogenes 323, DMSal, 1.5 μg/ml
Description: as §3, §4

[7] = test system: Salmonella typhimurium 722; assay: MIC / growth in DMSal (Example 16); format: cell-based; conditions: Salmonella typhimurium 722, DMSal, 1.5 μg/ml
Description: as §3, §4

Salmonella arizonae 1200 = assay: MIC / growth in DMSal (Example 16); format: cell-based; conditions: Salmonella arizonae 1200, DMSal, 1.5 μg/ml
Description: as §3, §4

Citrobacter freundii 370 [8] = assay: MIC in DMSal medium (Example 17); format: cell-based; conditions: Citrobacter freundii, 370
[9] = test system: Staphylococcus aureus OCC 102; assay: growth on nutrient agar streak plates, pure culture (Example 5); format: cell-based; conditions: S. aureus OCC 102, nutrient agar, 0-10 mM tested
Text: Example 1 was repeated using Staphylococcus aureus OCC 102 as the test organism.

S. aureus (MRSA) 934 = assay: MIC in DMSal medium (Example 17); format: cell-based; conditions: Staphylococcus aureus, MRSA
Text: (§5) Isoleucyl-AEP and sarcosyl-alanyl-AEP were compared to ala-AEP (all in DMSal medium) for the ability to selectively recover two clinically important pathogenic bacteria: Salmonella and Staphylococcus aureus.

[10] = test system: Enterococcus faecalis 581; assay: MIC in DMSal medium (Example 17); format: cell-based; conditions: Enterococcus faecalis, 581
Text: as §5

S. aureus 198 = assay: MIC in DMSal medium (Example 17); format: cell-based; conditions: Staphylococcus aureus, 198
Text: as §5

S. aureus ss aureus 2355 = assay: MIC in DMSal medium (Example 17); format: cell-based; conditions: Staphylococcus aureus
Text: as §5

## C[C@H](N)C(=O)N[C@@H](C)P(=O)(O)O [alaphosphin, L-alanyl-L-1-aminoethylphosphonic acid]
[1]
  growth (optical density) in presence of the agent: unaffected
E. faecalis OCC 604
  concentration causing complete inhibition: ≥ 2 mM
[2]
  MIC: 10 µg/mL (≈ 51 µM)
[3]
  growth (optical density) in presence of the agent: all inhibited
E. coli OCC 2129
  growth of E. coli: completely inhibited
[4]
  growth with Ala-AEP (1.5 μg/ml): Growth
[5]
  growth with Ala-AEP (1.5 μg/ml): Growth
Serratia marcescens 217
  growth with Ala-AEP (1.5 μg/ml): Growth
Citrobacter freundii 370 [6]
  growth with Ala-AEP (1.5 μg/ml): Growth
Salmonella virchow 703
  growth with Ala-AEP (1.5 μg/ml): Growth
Klebsiella aerogenes 323
  growth with Ala-AEP (1.5 μg/ml): Growth
[7]
  growth with Ala-AEP (1.5 μg/ml): Growth
Salmonella arizonae 1200
  growth with Ala-AEP (1.5 μg/ml): Growth
Citrobacter freundii 370 [8]
  MIC: 1 µg/mL (≈ 5.1 µM)
[9]
  concentration at which growth is completely inhibited: 10 mM
S. aureus (MRSA) 934
  MIC: 25 µg/mL (≈ 127 µM)
[10]
  MIC: 10 µg/mL (≈ 51 µM)
S. aureus 198
  MIC: 5 µg/mL (≈ 25.5 µM)
S. aureus ss aureus 2355
  MIC: 10 µg/mL (≈ 51 µM)
